Reference: BindingDB's records for doi:10.1080/14756360290019944 (University of Porto-Rua Anibal Cunha, 2002)

Target: Xanthine dehydrogenase/oxidase (Homo sapiens, UniProt P47989)
Assay: Inhibition Assay
Settings: pH 7.8; 25 °C
Method: The effect of 2-styrylchromone 1-3 on xanthine oxidase activity was evaluated by measuring the formation of uric acid from xanthine in a double beam spectrophotometer (Shimadzu 2600) at room temperature.

Sequence of Xanthine dehydrogenase/oxidase (P47989 whole entry): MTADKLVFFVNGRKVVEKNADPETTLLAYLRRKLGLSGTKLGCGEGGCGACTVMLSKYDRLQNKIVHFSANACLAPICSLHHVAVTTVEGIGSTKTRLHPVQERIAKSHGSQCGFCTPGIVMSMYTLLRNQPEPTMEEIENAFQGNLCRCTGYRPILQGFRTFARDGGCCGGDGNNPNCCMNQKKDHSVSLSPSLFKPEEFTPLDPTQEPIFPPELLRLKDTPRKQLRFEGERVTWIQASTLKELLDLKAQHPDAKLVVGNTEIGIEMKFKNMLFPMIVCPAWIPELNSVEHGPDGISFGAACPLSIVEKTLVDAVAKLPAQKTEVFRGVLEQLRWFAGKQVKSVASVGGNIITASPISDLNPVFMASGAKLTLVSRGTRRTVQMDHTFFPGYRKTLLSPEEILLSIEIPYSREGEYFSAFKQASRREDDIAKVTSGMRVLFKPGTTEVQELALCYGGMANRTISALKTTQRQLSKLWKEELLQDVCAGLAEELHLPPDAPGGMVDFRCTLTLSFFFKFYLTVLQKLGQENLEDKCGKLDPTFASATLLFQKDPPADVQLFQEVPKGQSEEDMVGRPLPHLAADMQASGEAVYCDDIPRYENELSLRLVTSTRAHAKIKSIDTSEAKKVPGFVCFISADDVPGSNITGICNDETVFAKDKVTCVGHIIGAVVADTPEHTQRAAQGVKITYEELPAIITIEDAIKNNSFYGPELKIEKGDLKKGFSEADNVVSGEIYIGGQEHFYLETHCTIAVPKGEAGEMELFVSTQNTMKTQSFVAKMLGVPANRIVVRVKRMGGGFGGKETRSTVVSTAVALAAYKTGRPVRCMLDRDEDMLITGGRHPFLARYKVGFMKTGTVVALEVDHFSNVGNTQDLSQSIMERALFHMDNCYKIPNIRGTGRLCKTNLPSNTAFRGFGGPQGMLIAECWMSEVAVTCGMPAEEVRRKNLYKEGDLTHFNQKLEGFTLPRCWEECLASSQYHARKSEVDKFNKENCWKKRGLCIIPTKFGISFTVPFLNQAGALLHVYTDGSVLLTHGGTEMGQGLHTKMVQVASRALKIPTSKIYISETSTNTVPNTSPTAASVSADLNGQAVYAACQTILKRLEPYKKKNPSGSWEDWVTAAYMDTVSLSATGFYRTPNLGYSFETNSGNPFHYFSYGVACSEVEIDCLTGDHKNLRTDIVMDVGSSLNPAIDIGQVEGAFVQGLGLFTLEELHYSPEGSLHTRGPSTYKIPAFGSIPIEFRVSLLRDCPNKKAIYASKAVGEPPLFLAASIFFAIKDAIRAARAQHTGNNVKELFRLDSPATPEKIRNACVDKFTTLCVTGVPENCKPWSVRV

SMILES	IC50
O=c1cc(/C=C/c2ccccc2)oc2ccccc12	> 100 µM
O=c1cccc2oc(C=Cc3ccccc3)cc(O)c1-2 [2-Styrylchromone derivate, 1b]	52.1 µM
O=c1cc(/C=C/c2ccccc2)oc2cc(O)ccc12 [2-Styrylchromone derivate, 1c]	17 µM
O=c1cccc2oc(C=Cc3ccc(O)cc3)cc(O)c1-2 [2-Styrylchromone derivate, 2a]	77.4 µM
O=c1cc(/C=C/c2ccc(O)cc2)oc2cc(O)ccc12 [2-Styrylchromone derivate, 2b]	19.6 µM

Stronger by IC50, values ahead:

IC50	SMILES
2.52 µM	O=c1cc(C=Cc2ccccc2)oc2cc(O)cc(O)c12 [2-Styrylchromone derivate, 1d]
9.46 µM	O=c1cc(C=Cc2ccc(O)cc2)oc2cc(O)cc(O)c12 [2-Styrylchromone derivate, 2c]
4.36 µM	O=c1cccc2oc(C=Cc3ccc(O)c(O)c3)cc(O)c1-2 [2-Styrylchromone derivate, 3a]
2.03 µM	O=c1cc(/C=C/c2ccc(O)c(O)c2)oc2cc(O)ccc12 [2-Styrylchromone derivate, 3b]
0.55 µM	O=c1cc(O)cc2oc(C=Cc3ccc(O)c(O)c3)cc(O)c1-2 [2-Styrylchromone derivate, 3c]
